Experimental data as given in patent US20260191810A1, “CAROTENOID COMPOSITIONS AND USES THEREOF” (L.E.A.F. HOLDINGS GROUP LLC, priority 2019, published 2026).

Key:
[1] = Liposomal CTC and MTC PK, single slow intravenous bolus, plasma HPLC; assay type: in vivo; settings: Balb/c mice
Procedure: 5 μL of each plasma sample was mixed with 395 μL methanol containing 1% formic acid. Sample mixtures were well mixed by vortexing. […] Samples were vortexed and then centrifuged at 10000 RPM for 10 min at room temperature. 200 μL of supernatant was removed from each sample without disturbing pellet and analyzed by HPLC. If the amount of plasma permitted, this analysis was duplicated.
The concentration of STC in the plasma samples was quantified by standard curve constructed by analyzing plasma samples containing known amount of STC. PK profiles were analyzed.

mouse CLP sepsis model = assay: Survival Study 1 (TP-936), CLP sepsis efficacy; assay type: in vivo, C57BL/6 mice; settings: CLP mice treated with saline and imipenem (imipenem-treated control)
Excerpt: Male and/or female C57BL/6 mice ordered from Envigo Laboratories or the Jackson Lab (Bar Harbor, Maine) were acclimated to housing conditions and handled in accordance with Animal Use Protocol (AUP) number TP-05. The animals were acclimated for approximately 1 week prior to study start. Only animals deemed healthy were included in this study. Animals were fed irradiated Teklad Global Rodent Diet 2918 and water ad libitum. Mice were group housed 5/cage in static cages with irradiated Teklad ⅛″ corn cob bedding 7902 inside bioBubble® Clean Rooms that provide H.E.P. A filtered air into the bubble environment at 100 complete air changes per hour. The environment was controlled to a temperature range of 74°±5° F. and a humidity range of 30-70%. Treatment groups were identified by cage card. Individual mice were identified by indelible marker on the base of the tail. All procedures carried out in this experiment were conducted in compliance with the laws, regulations, and guidelines of the National Institutes of Health and with the approval of the TransPharm Animal Care and Use Committee.
On Day −1, male and/or female mice were anesthetized through use of isoflurane and brought to a surgical plane. […]
Animals were monitored continually post-surgery, at least once every 2-3 minutes for approximately 30 minutes, until the animals had recovered and were able to move about on their own. […]

Question: With `CC(/C=C/C=C(\C)C(=O)O)=C\C=C\C=C(C)\C=C\C=C(/C)C(=O)O` [STC free drug, sodium trans-crocetinate] as the molecule, how does the AUC [1] read?
Answer: Its AUC is 260 µg·h/mL.

Question: And the T1/2 [1]?
Answer: The T1/2 was 28.2 min.

Question: For `C[C@@H](O)[C@H]1C(=O)N2C(C(=O)O)=C(SCCN=CN)C[C@H]12` [imipenem], which mortality (mouse CLP sepsis model) is on record?
Answer: The mortality was 50%.
